Reference: patent US5573772A, “Methods for protecting tissues and organs from ischemic damage” (priority 1994, dated 1996)
“Also recorded” adds a separate entry of the source.

System: isolated rabbit hearts
Assay: Hemodynamic responses (heart rate, coronary flow, LVDP, AV conduction) in isolated perfused rabbit hearts, Example 1
Parameters: species or system rabbit (New Zealand white)
Conditions: for Hemodynamics, treatment alone: SPT or DPCPX alone
Experimental: These solutions were then diluted in Krebs buffer to the final concentration just before the experiments started. New Zealand white rabbits of either sex, between 1.4-2.4 kg, were anesthetized with intravenous sodium pentobarbital (30 mg/kg). The neck was opened and a tracheotomy was performed. The rabbits were ventilated with 100% oxygen via a positive pressure respirator (MD industries, Mobile, Ala.). Ventilation rate was 30-35 breaths per minute, and tidal volume was approximately 15 ml. A left thoracotomy was performed in the fourth intercostal space and pericardium was opened to expose the heart. A 2-0 silk suture with an RB taper needle was passed around a branch of the left coronary artery, and the end of the silk were threaded through a small vinyl tube to form a snare. The heads were quickly excised and mounted on a Langendorff apparatus and perfused at constant pressure with Krebs buffer containing (in mM) 118.5 NaCl, 4.7 KCl, 1.2 MgSO4, 1.2 K2 PO4, 24.3 NaHCO3, 2.5 CaCl2 and 10 glucose. […] The temperature of the perfusate was maintained at 37° C. The perfusion pressure was kept at 75 mm Hg. Pacing electrodes were placed on the right atrium and all hearts were paced at 200 beats/minute with pulses of 5 volts and 4 msec duration to keep the heart rate constant. A fluid-filled latex balloon connected to a transducer via PE240 tubing was inserted into the left ventricle. Balloon volume was adjusted to set the left ventricular diastolic pressure at 10 mm Hg at the beginning of the experiment. Total coronary artery flow was measured by timed collection of buffer from the chamber into a graduated cylinder. Regional ischemia was effected by pulling the snare tight and clamping the tube with a hemostat. Global ischemia was performed by clamping the inflow tubing of the Langendorff apparatus. Reperfusion was achieved by releasing the restriction. All hearts were allowed to equilibrate for 20 minutes before the experiments were started. Heart rate (HR), coronary flow (CF) and left ventricular developed pressure (LVDP) were recorded at the point just before and at the end of each treatment with the pacing momentarily turned off. The animals were divided into 10 groups. The hearts in all groups were subjected to 30 minutes of coronary branch occlusion followed by 120 minutes of reperfusion. Control group (CON, n=10) only experienced the above-mentioned 30 minutes of regional ischemia while the preconditioned group (PC, n=12) received an additional 5 minutes of global ischemia plus 10 minutes of reperfusion prior to the 30 minute occlusion. In the adenosine group (ADO, n=6) and the APNEA group (APNEA, n=5), the hearts were exposed to 10 uM adenosine and 50 nM APNEA respectively, for 5 minutes as a substitute for ischemic preconditioning. The drug was allowed to washout for 10 minutes before the 30 minute ischemia was started. In groups receiving SPT, the blocker was included in the perfusate for 15 minutes at 100 uM starting 5 minutes before the exposure of ADO (ADO-SPT group, n=6) or APNEA (APNEA-SPT group, n=5) or 5 minutes before and after 5 minutes of preconditioning ischemia (PC-SPT group, n=5). […] All results are expressed as group mean±SEM. The differences among groups was determined by a one-way analysis of variance with a Newman-Keuls post hoc test. A value of p<0.05 was considered to be significant. In order to ensure that the adenosinergic agents were active at the concentrations employed, hemodynamic responses were measured in a separate group of animals who experienced similar surgery described above except the coronary snare was not installed and therefore the second group of animals were not exposed to ischemia. The hearts were quickly excised and mounted on the Langendorff apparatus and perfused with Krebs buffer. The depressant effect of adenosine on atrioventricular (AV) conduction time was measured at a constant rate of atrial pacing, as an index of A 1-mediated activity. […]

Which results are given for `Nc1ncnc2c1ncn2[C@@H]1O[C@H](CO)[C@@H](O)[C@H]1O` [ADO, Adenosine]?
HR and CF effects of ADO after washout (10 minutes of washout): completely disappeared; Coronary flow (CF) after infusion (ADO 10 uM, 5 minutes, increased from 7.6±0.6 ml/g/min): 10.3 ± 0.8 mL/g/min; Heart rate (HR) after infusion (ADO 10 uM, 5 minutes, significantly decreased from 176±8 beats/min): 149±6 beats/minutes

What does the source list for `Nc1ccc(CCNc2ncnc3c2ncn3[C@@H]2O[C@H](CO)[C@@H](O)[C@H]2O)cc1` [APNEA, N^6-(2-(4-aminophenyl)ethyl) adenosine]?
Alteration of HR, CF or LVDP (APNEA 50 nM): did not significantly alter HR, CF or LVDP; Activation of A1 or A2 adenosine receptors (APNEA 50 nM, inferred from hemodynamics): neither the A1 nor A2 adenosine receptors are activated

With `Cn1c(=O)c2[nH]c(-c3ccc(S(=O)(=O)O)cc3)nc2n(C)c1=O` [SPT, 8-(p-Sulfophenyl)-theophylline] as the compound, how does the “Blockade of CF increase from ADO infusion” value (SPT 100 uM vs ADO) read?
Its value is “abolished”.

And the “Blockade of HR decrease from ADO infusion” value (SPT 100 uM vs ADO)?
The value was “abolished”.

What about the “Hemodynamics, treatment alone” value of the same compound?
Its value is “only slightly affected”.

What does the source list for `CCCn1c(=O)c2[nH]c(C3CCCC3)nc2n(CCC)c1=O` [DPCPX, 8-cyclopentyl-1,3-dipropylxanthine]?
Blockade of adenosine's effect on heart rate (DPCPX 200 nM vs ADO): eliminated the decrease in HR; also recorded: entirely blocked; also recorded: completely blocked; Effect on increase in CF from ADO infusion (DPCPX 200 nM vs ADO): did not affect the increase in CF; Hemodynamics, treatment alone: only slightly affected
